Measurements reported in PubChem BioAssay AID179 (DTP/NCI, 2004).
Where “and” joins values, the source holds several entries; their conditions need not be identical. Identical values can stand only once. Calls of active or inactive are those of the source.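 Rule for the calls: active = compounds giving half or more protection of infected cells from virus-caused growth loss, again on retest; inactive = the rest.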 Where a SMILES comes first, the peptide text is derived from it.

Tested on: CEM cells HIV-1 protection, formazan growth assay
Experiment: NCI AIDS Antiviral Assay
Details: for IC50: measured here: growth of uninfected CEM cells
How it was run: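 Protection of CEM cells against HIV-1 was scored from cell growth (soluble formazan) across five concentrations, with parallel uninfected cells. Lack of protection may reflect toxicity.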

SMILES	EC50 [µM]	IC50	outcome
COC(=O)/C=C(/C=C1/C(C#N)=C(N)N(c2ccc(Cl)cc2)C1(C)/C(=C\C(=O)OC)C(=O)OC)C(=O)OC (configuration not stated)	> 200	8.91 µM	–
CCOC(=O)Cc1c[nH]c2ccc(N(CCO)CCO)cc12	> 200	–	–
C1CN2N3CCCC23C1 (configuration not stated)	> 2000	> 2000 µM	–
Clc1ccc(C2NCCNCc3ccccc32)cc1 (configuration not stated)	–	–	inactive
CN(C)S(=O)(=O)c1cc(Cl)cc(Cc2cc(Cl)cc(S(=O)(=O)N(C)C)c2O)c1O	> 74.1	4.37 µM	–
CC(C)COC(=O)c1ccc(N)cc1	> 200	> 200 µM	–
CCC(C)C(NC(=O)C(CCCN=C(N)N)NC(=O)C(CC(N)=O)NC(=O)C(Cc1cnc[nH]1)NC(=O)C(N)CC(C)C)C(=O)NC(C(=O)NC(CC(C)C)C(=O)NCC(=O)NC(CC(N)=O)C(=O)O)C(C)CC (configuration not stated) (H-LHNRIILGN-OH; configuration not given here)	> 47.9	> 47.9 µM	–
Cc1ccc(/C=C2\CNC/C(=C\c3ccc(C)cc3)C2=O)cc1	> 3.98	> 3.98 µM	–
CNCC(=O)c1ccc(O)c(O)c1	> 200	> 200 µM	–
O=C1C=C/C(=C/C(O)COC(=O)c2ccccc2)O1 (configuration not stated)	> 138	77.6 µM	–
CCOC(=O)/C(=C/c1cn(C(C)=O)c2ccccc12)P(C)(=O)OCC (configuration not stated)	> 200	37.2 µM	–
COc1cc2ccc3c(c2oc1=O)[C@@H](OC(=O)C12CCC(C)(C(=O)O1)C2(C)C)[C@@H](OC(=O)C12CCC(C)(C(=O)O1)C2(C)C)C(C)(C)O3 (some centres not stated)	0.851	19.1 µM	–
CCCCn1c(=O)cc(C(=O)O)c2ccccc21	> 200	> 200 µM	–
COc1ccc(NC(=S)Nc2c(C)n(C)n(-c3ccccc3)c2=O)cc1	> 200	> 200 µM	–
CCOC(=O)CC(O)(c1ccccc1)c1ccccc1	> 10	> 10 µM	–
O=C1OC(c2ccccc2)=N/C1=C\c1cccc2ccccc12	> 120	> 120 µM	–
CN(C)C(=C1C(Br)=C(Br)C(Br)=C1Br)N(C)C	–	–	inactive
COc1cc2c(c(OC)c1OC)-c1cccc(=O)cc1C(NC(C)=O)CC2 (configuration not stated)	> 2	0.0389 µM	–
Cc1ccccc1NC(=O)C(=O)c1c(O)c2ccc(O)cc2oc1=O	> 741	331 µM	–
COC12C=CC(CC1)c1c2c(O)c2nc(C)c(C)nc2c1O (configuration not stated)	> 200	3.16 µM	–
CC[P+](CC)(c1ccccc1)c1ccccc1	> 676	95.5 µM	–
COc1ccc(-c2cc3c(c4cc(OC)ccc24)C(=O)OC3=O)cc1	> 11.2	> 11.2 µM	–

SMILES	EC50 [µM]	IC50	outcome
N.N.N.N.N.N.[Br-].[Co+3]	–	–	inactive
Cc1cc(N(CCC#N)CCC#N)ccc1/C=C(\NC(=O)/C=C/c1ccccc1)C(=O)NN	–	–	inactive
CCN(CC)c1ccc2cc(-c3csc(-c4ccc(N(C)C)cc4)n3)c(=O)oc2c1	> 100	10 µM	–
CC1=C(C#N)C2C(=C(C)N1)C(N)=Nc1ccccc12 (configuration not stated)	> 200	13.5 µM	–
CCn1nc(-c2ccccc2)c2c1N(C)c1ccccc1-n1c(-c3ccccc3)nnc1-2	> 200	26.3 µM	–
CC1=NN(c2nc(N)nc(NS(=O)(=O)c3cc(C)c(Cl)cc3S)n2)C(C)(C)C1	105	479 µM	–
CCCCN=C(NC#N)N(Cc1ccccc1)Cc1ccccc1	> 100	22.9 µM	–
O=C1C(=c2ccc(=C3C(=O)c4ccc([N+](=O)[O-])cc4[N+]3=O)cc2)N([O-])c2cc([N+](=O)[O-])ccc21	> 11.5	> 11.5 µM	–
CN(c1ccccc1)c1cc2ccccc2nn1	> 200	93.3 µM	–
COc1ccc(/C(C)=N/NC(=S)N(C)C)c(O)c1	> 200	4.79 µM	–
NC(N)=NCCCC(NC(=O)OCCCCn1ccc(N)nc1=O)C(=O)O (configuration not stated)	> 200	> 200 µM	–
C#Cc1c(C)c(/C=C/C(C)=C/C=C/C(C)=C/C(=O)OC)n(C)c1C	> 22.4	> 22.4 µM	–
CCOC(=O)N1C/C(=C\c2ccccc2)C(=O)/C(=C/c2ccccc2)C1	> 100	1.82 µM	–
COc1ccc(/C(C)=N/N=C\c2cc(OC)c(OC)c(OC)c2)cc1	> 200	> 200 µM	–
O=C(Nc1ccccc1)c1cc(S(=O)(=O)Nc2n[nH]c(=O)n2-c2ccccc2)c(S)cc1Cl	89.1	> 200 µM	–
Cc1cc([N+](=O)[O-])c(C)c2c1[nH]c1ccc(Cl)cc12	> 10	> 10 µM	–
CCCCCCCCCCCCOc1ccc(/C(=N\N=C(N)N)c2ccccc2)c(O)c1	> 200	> 200 µM	–
Nc1nc(Cl)cc(Nc2cc(Cl)cc(Cl)c2)n1	> 200	23.4 µM	–
CSCCCNC(=O)c1csc(-c2csc(CCNC(=O)CNC(=O)CNC(=O)CNC(=O)OC(C)(C)C)n2)n1	> 407	> 407 µM	–
NC(=O)c1oc([N+](=O)[O-])c(-c2ccccc2)c1-c1ccccc1	> 200	15.1 µM	–
NC1CC(=O)c2cc(Cl)sc21 (configuration not stated)	> 200	> 200 µM	–
CCCCC#C[I+]c1ccccc1	–	–	inactive

SMILES	EC50 [µM]	IC50	outcome
CCC1=C(OC)c2nccc(C)c2C(=O)C1=O	–	–	inactive
CC(=O)NNc1nc(C)c(C(/C=C/c2ccc(/C=C/C(=N\NC(=O)c3ccncc3)c3sc(NNC(C)=O)nc3C)cc2)=N/NC(=O)c2ccncc2)s1	> 13.2	> 13.2 µM	–
CC(=O)OCCn1cnc2nc(Nc3ccccc3)nc(Cl)c21	> 200	70.8 µM	–
NC(=O)c1c[se]c(C2OC(COP(=O)(O)CP(=O)(O)OCC3OC(n4cnc5c(N)ncnc54)C(O)C3O)C(O)C2O)n1 (configuration not stated)	> 100	16.6 µM	–
O=C1/C(=N\O)S(=O)(=O)c2ccccc21	–	–	inactive
S=C1NC2(CCCCC2)C2=C(CCCC2)S1	> 141	12 µM	–
COc1c2c(c3ccccc3c1O)C1C=CC2C1 (configuration not stated)	> 110	10 µM	–
N.N.N.N.O=C([O-])C(=O)O.O=C([O-])C(=O)[O-].[Co+3]	–	–	inactive
O=C(/C(=C(/Br)I)c1ccccc1)c1ccccc1	> 200	27.5 µM	–
OCCN1CCN(CC/C=C2\c3ccccc3Sc3ccc(Cl)cc32)CC1	> 200	10.2 µM	–
ClCCc1ccccc1CC1=NCCc2ccccc21	> 200	36.3 µM	–
CCOC(=O)c1[nH]c2c(cc(C(=O)C(F)(F)F)c3ccccc32)c1C(F)(F)F	> 17.8	> 17.8 µM	–
COc1ccc(C(c2ccc3cccnc3c2O)c2oc(CO)cc(=O)c2O)cc1 (configuration not stated)	–	–	inactive
COC(=O)C1=NN2c3ccccc3C(=O)OCCC2(C)C1 (configuration not stated)	> 200	> 200 µM	–
C=C(CCC(Cl)C(COS(=O)(=O)c1ccc(C)cc1)OC(CCCO[Si](c1ccccc1)(c1ccccc1)C(C)(C)C)OCC)[Si](C)(C)C (configuration not stated)	> 5.01	> 5.01 µM	–
CC1C(=O)C(C)C(c2ccccc2)N(N=O)C1c1ccccc1 (configuration not stated)	> 42.7	> 42.7 µM	–
Cc1c(Cl)c(=O)oc2cc(O)ccc12	> 324	174 µM	–
Clc1cccc(N2CCN(CCCN3CCc4c([nH]c5ccccc45)C3c3cccnc3)CC2)c1 (configuration not stated)	> 5.37	> 5.37 µM	–
CC(C)(Oc1ccc2c(=O)cc(-c3ccccc3)oc2c1)C(=O)N1CCN(c2ccccc2)CC1	> 200	20.9 µM	–
[N-]=[N+]=Nc1ccc2c(c1)Sc1ccccc1N2CCCCCl	> 200	26.9 µM	–
COC(=O)C(Cc1cn(C(C)=O)c2ccccc12)P(=O)(OC)OC (configuration not stated)	> 200	> 200 µM	–
Cc1nn(C)c2c1C(=O)N(C)CC(=O)N2C	> 200	> 200 µM	–

SMILES	EC50 [µM]	IC50	outcome
c1cnc2nc3n(c2c1)CSC3	> 380	355 µM	–
O=c1cc(N2CCCC2)[nH]c(=O)n1-c1ccccc1	> 200	> 200 µM	–
CCOC(=O)c1c(SCCCN2CCCCC2)n(-c2ccccc2)c(=S)n(-c2ccccc2)c1=O	> 37.2	6.31 µM	–
CC1CCCC2(O1)OC1CC(=O)OC1C1=C2C(=O)c2ccccc2C1=O (configuration not stated)	> 87.1	0.417 µM	–
Cc1cc(O)c(C(C)(C)C)cc1Sc1cc(C(C)(C)C)c(O)cc1C	> 200	6.46 µM	–
Cc1cc(O)c(C=NC(=S)c2cccnc2)c(=O)o1	> 200	77.6 µM	–
CC(=O)OCc1cn(S(=O)(=O)c2ccc(C)cc2)cn1	> 200	24 µM	–
C=CCc1cc2c(cc1COCOCCOCCOCCCC)OCO2	> 200	44.7 µM	–
COc1ccc(-c2c3c(n(C4OC(COC(C)=O)C(OC(C)=O)C(OC(C)=O)C4OC(C)=O)c(=S)c2C#N)CC(C)(C)CC3=O)cc1 (configuration not stated)	> 200	26.3 µM and 53.7 µM	–
CC1(CO)CC(O)C(n2cnc3c(N)ncnc32)O1 (configuration not stated)	> 5.13	> 5.13 µM	–
OC(c1ccc(Cl)cc1)(c1ccc(Cl)cc1)c1cncnc1	–	–	inactive
CC1c2c(n(C)c3ccccc23)C2CCC3(CO3)C1N2Cc1ccccc1 (configuration not stated)	–	–	inactive
c1csc(-c2nc3sc(-c4cccs4)nc3s2)c1	–	–	inactive
O=C1c2c(O)cc(O)cc2O[C@H](c2ccc(O)cc2)[C@H]1[C@@H]1C(=O)c2c(O)cc(O)cc2O[C@H]1c1ccc(O)cc1	> 200	8.51 µM	–
CCCCCCCCCCCCCCCC(=O)OCCOCCOCCOCCOCCOC(=O)CCCCCCCCCCCCCCC	–	–	inactive
COC12c3ccccc3-c3ccccc3C1[C@H]1C(=O)OC(=O)[C@H]12 (some centres not stated)	> 162	> 162 µM	–
NC(=O)C(=CNc1nc(-c2cccc([N+](=O)[O-])c2)cs1)C(N)=O	> 200	> 100 µM	–
CCOC(=O)/C(=C\c1ccc(Cl)cc1)P(=O)(OCC)OCC	> 15.1	14.1 µM	–
CC(=O)Nc1c2sscc-2n(C)c1=O	> 16.6	0.891 µM	–
CC(=O)Nc1ccc(/C=C(\NC(=O)c2ccccc2)C(=O)NNS(=O)(=O)c2ccc(C)cc2)cc1	> 52.5	> 52.5 µM	–
CC(=O)CC12NC(=O)N(C)N=C1N(C)C(=O)N(C)C2=O (configuration not stated)	> 200	10.7 µM	–
CCOC(=O)C(=CNC(=S)c1cccnc1)C(=O)OCC	> 200	17.8 µM	–
